Assay [1] relates to 4T1 mammary carcinoma cells. Kind of assay: 4T1 experimental metastasis assay. The conditions noted are these: IVIS imaging day 7; glycopolymer 100 μg/mouse i.p. 20 min before and together with the cells. The assay is classed as in vivo, BALB/c mice. The protocol:
4T1 Metastasis Assay. Luciferase-labeled 4T1 mammary carcinoma cells (1×10^5/mouse) were injected i.v. (n=6 mice/group) with vehicle alone (control, PBS), with positive control (heparin), or with GlcNS(6S)α((1,4)GlcA glycopolymer (DP=12, 100 μg/mouse) into BALB/c mice (i.p) 20 min prior to cell inoculation and also together with the cells. IVIS bioluminescent imaging was performed on day 7 after cell inoculation. For IVIS imaging, mice were injected intraperitoneally with D-luciferin substrate at 150 mg/kg and anesthetized with continuous exposure to isoflurane (EZAnesthesia, Palmer, Pa.). The experiment was repeated 3 times with similar results.
4T1 Metastasis Assay (Menhofer, et al., PLOS ONE 2014, 9, el 12542). Luciferase-labeled 4T1 breast carcinoma cells (1×10^5/mouse) were injected i.v (n=6 mice/group) with vehicle alone (control, PBS), with positive control (heparin), or with GlcNS(6S)α(1,4)GlcA glycopolymer (DP=12, 100 μg/mouse) into BALB/c mice (i.p) 20 min prior to cell inoculation and also together with the cells. IVIS bioluminescent imaging was performed on day 7 after cell inoculation. […] Light emitted from the bioluminescent cells is detected by the IVIS camera system with images quantified for tumor burden using a log-scale color range set at 5×10^4 to 1×10^7 and measurement of total photon counts per second (PPS) using Living Image software (Xenogen). […]

Another assay has as its target T1, FGF-1 (Homo sapiens, UniProt P05230).
T1 construct: purchased R&D Systems
Briefly: Solution-based competitive BLI assay, FGF-1. The assay is classed as binding. The conditions noted are these: competition with immobilized biotin-heparin (18 kDa), 25° C., read-out: dissociation constant (apparent Kd) to FGF-1. The protocol: (§1) Biolayer Interferometry Cross-Bioactivity Assay. BLI assays were performed on an Octet Red Instrument (fortéBIO) at 25° C. Immobilization and binding analysis were carried out at 1000 rpm using HBS-EP buffer.
(§2) Biolayer Interferometry (BLI) Assay. BLI assays were performed on an Octet Red Instrument (fortéBIO) at 25° C. Immobilization and binding analysis were carried out at 1000 rpm using HBS-EP buffer [10 mM HEPES, pH 7.4, 150 mM NaCl, 3.0 mM EDTA, and 0.005% (v/v) surfactant tween20]. A solution affinity assay, used to determine affinities of ligands by SPR analysis, was adopted to BLI (Cochran et al., Glycoconjugate J. 2009, 26, 577-587.). In this method, protein is mixed with various concentrations of ligand (glycopolymer C5A or heparin, 18 kDa). Free protein in this equilibrium mixture is tested for binding against immobilized heparin (all proteins are carrier-free and purchased from R&D Systems). Heparin-biotin (Creative PEGworks, 18 kDa, 1 biotin per HP polymer), 5 μg/mL was immobilized on to streptavidin biosensors (fortéBio) for 5 min. Binding experiments were carried out under conditions of mass transport. Binding was fitted to equation 1 (as taught in reference Chai, et al. Anal. Biochem. 2009, 395, 263-264.) using Graphpad Prism. BLI response was used in place of F and ligand (heparin/glycopolymer C5A) concentration was used in place of [metal]. […]

A further assay deals with T2, FGF-2 (Homo sapiens, UniProt P09038).
T2 construct: purchased R&D Systems
T2 sequence (P09038 143-288, species assumed): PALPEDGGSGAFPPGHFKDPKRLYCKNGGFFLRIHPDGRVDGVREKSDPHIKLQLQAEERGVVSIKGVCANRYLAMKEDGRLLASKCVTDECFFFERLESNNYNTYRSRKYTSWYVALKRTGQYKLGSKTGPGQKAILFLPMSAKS
Kind of assay: Solution-based competitive BLI assay, FGF-2. The assay is classed as binding. The conditions noted are these: competition with immobilized biotin-heparin (18 kDa), 25° C., read-out: dissociation constant (apparent Kd) to FGF-2. The method, then:
as §1, §2

Another assay deals with T3, VEGF (Homo sapiens, UniProt P15692).
T3 construct: purchased R&D Systems
T3 sequence (P15692 27-191 isoform P15692-4): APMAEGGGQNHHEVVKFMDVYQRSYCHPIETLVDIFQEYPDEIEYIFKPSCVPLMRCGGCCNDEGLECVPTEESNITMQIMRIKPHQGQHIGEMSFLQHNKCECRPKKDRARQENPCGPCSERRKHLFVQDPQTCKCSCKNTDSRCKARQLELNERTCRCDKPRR
Kind of assay: Solution-based competitive BLI assay, VEGF. In kind it is binding. The conditions noted are these: competition with immobilized biotin-heparin (18 kDa), 25° C., read-out: dissociation constant (apparent Kd) to VEGF. The protocol: as §1, §2

The target in the next assay is T4, platelet factor-4 (PF4) (Homo sapiens, UniProt P02776).
T4 construct: purchased R&D Systems
T4 sequence (P02776 32-101): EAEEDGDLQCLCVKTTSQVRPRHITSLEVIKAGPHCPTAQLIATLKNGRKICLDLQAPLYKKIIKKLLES
Kind of assay: Solution-based competitive BLI assay, PF4. In kind it is binding. The conditions noted are these: competition with immobilized biotin-heparin (18 kDa), 25° C., read-out: dissociation constant (apparent Kd) to PF4. The method, then:
as §1, §2

A further assay concerns the target T5, P-selectin (Homo sapiens, UniProt P16109).
T5 construct: purchased R&D Systems
T5 sequence (P16109 42-830): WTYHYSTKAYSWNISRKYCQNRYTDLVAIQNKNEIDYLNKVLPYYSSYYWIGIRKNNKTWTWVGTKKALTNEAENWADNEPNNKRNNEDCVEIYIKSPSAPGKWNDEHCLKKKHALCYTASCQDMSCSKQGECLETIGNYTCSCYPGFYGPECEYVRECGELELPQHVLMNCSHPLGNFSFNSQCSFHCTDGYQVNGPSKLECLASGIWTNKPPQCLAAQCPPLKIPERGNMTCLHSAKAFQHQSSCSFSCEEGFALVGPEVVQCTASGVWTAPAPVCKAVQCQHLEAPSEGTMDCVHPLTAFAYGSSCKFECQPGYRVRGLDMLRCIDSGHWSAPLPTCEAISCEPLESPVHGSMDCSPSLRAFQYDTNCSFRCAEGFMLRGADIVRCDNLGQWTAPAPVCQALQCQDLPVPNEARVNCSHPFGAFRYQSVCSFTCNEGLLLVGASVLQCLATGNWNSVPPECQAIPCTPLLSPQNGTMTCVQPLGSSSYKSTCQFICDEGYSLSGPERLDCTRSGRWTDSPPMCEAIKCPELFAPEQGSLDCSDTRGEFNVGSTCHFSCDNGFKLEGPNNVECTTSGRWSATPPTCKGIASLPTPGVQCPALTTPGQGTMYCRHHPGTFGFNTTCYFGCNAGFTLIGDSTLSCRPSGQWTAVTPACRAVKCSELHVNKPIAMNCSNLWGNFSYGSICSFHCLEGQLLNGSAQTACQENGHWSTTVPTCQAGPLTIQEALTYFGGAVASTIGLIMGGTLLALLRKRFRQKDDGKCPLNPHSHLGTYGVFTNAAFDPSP
Briefly: Solution-based competitive BLI assay, P-selectin. The conditions noted are these: HBS-EP buffer with 2 mM CaCl2, 2 mM MgCl2 and 0.5 mg/mL BSA. The assay is classed as binding. The protocol: as §1, §2

T1 sequence (P05230 whole entry, species assumed): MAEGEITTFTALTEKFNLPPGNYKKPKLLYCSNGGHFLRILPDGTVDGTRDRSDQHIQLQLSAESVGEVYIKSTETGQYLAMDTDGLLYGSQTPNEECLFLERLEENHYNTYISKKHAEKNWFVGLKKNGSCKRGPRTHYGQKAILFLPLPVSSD

Regarding Roneparstat, the “antimetastatic effect, lung metastasis of 4T1 cells” value in assay [1] is on record as “effect was similar”.
As for heparin [reference compound], the Kd was found to be 4.6 ± 3.3 nM on FGF-1; 0.15 ± 0.11 nM on FGF-2; 4.91 ± 1.55 nM on VEGF; 0.31 ± 0.028 nM at platelet factor-4 (PF4); 125 ± 152 nM on P-selectin. The “antimetastatic effect, lung metastasis of 4T1 cells” value in assay [1] is “reduced the size of the metastasized lung tumor by half”.

Values taken from US20210330693A1, “HEPARANASE INHIBITORS AND THEIR USE AS ANTI-CANCER COMPOUNDS” (Wayne State University, priority 2018, published 2021).
